The text below walks through data of patent publication US7053228B2, “Sulfur analogues of 21-hydroxy-6,19-oxidoprogesterone (21OH-6OP) for treating excess of glucocorticoids” (Applied Research Systems ARS Holding N.V., priority 2000, dated 2006).

In one test the test system is rat thymocytes. Put plainly: Apoptosis in rat thymocytes (annexin V-FITC/propidium iodide flow cytometry). The test is classed as cell-based. The following applies: early + late apoptosis. Here is the method:
On this basis, the antiglucocorticoid properties of the compounds of the present invention may be determined by examining the decrease/increase of apoptosis in rat thymocytes after treatment with a given test compounds. Regulation of apoptosis was analyzed by flow cytometry. The method consists of quantifying fluorometrically the apoptotic cells in the sample. In normal viable cells phosphatidyl serine (PS) is located on the cytoplasmic surface of the cell membrane. Upon induction of apoptosis, rapid alteration in the organization of phospholipids in most cell types occurs leading to exposure of PS on the cell surface. In vitro detection of externalized PS may be achieved through interaction with the anticoagulant annexin V. In the presence of calcium, rapid high affinity binding of annexin V to PS occurs. PS translocation to the cell surface precedes nuclear breakdown, DNA fragmentation and the appearance of most apoptosis-associated molecules making annexin V binding a marker of early-stage apoptosis. In the assay used, a fluorescein isothiocyanate (FITC) conjugate of annexin V is used allowing detection of apoptosis by flow cytometry. Since membrane permeabilization is observed in necrosis, necrotic cells will also bind annexin V-FITC. Propidium iodide is used to distinguish between viable and early apoptotic cells thus the latter will be labeled only with FITC while late apoptotic cells will be labeled with FITC and propidium iodide. An annexin V-FITC apoptosis detection kit from Oncogen Research Products (cat. No. PF032) was used following the RAPID protocol recommended by the manufacturer. Briefly, after incubation with various compounds (see below), cells were centrifuged at 2000 rpm for 5 min, the media removed and cell pellets washed with phosphate buffered saline (PBS): Cells were resuspended in the binding buffer to a density of 1×10^6 cells/ml. Binding reagent (10 μl) and annexin V/FITC (1.25 μl) were added and cells incubated for 15 min at room temperature in the dark. The cells were centrifuged and to the pellet were added binding buffer (0.5 ml) and propidium iodide (10 μl). Samples were analyzed by flow cytometry in a Cytoron Absolute cytometer (Ortho Diagnostic Systems). […] The cytograms obtained are presented in FIGS. 3a-3f, where GR-FL represents fluorescence from FITC and RD-FL represents fluorescence from propidium iodide. […] Early apoptotic cells with exposed PS but intact cell membranes appear in the […] quadrant. Necrotic or late apoptotic cells appear in the upper right quadrant. A small percentage of normal cell death may also occur, none is observed in this case.
(In general: In flow cytometry, cells or beads pass a laser one at a time.)

The next test has as its target T1, glucocorticoid receptor (Homo sapiens, UniProt P04150).
T1 construct: expressed in transfected cells; host or cells: Cos-1
T1 sequence (P04150 1-777): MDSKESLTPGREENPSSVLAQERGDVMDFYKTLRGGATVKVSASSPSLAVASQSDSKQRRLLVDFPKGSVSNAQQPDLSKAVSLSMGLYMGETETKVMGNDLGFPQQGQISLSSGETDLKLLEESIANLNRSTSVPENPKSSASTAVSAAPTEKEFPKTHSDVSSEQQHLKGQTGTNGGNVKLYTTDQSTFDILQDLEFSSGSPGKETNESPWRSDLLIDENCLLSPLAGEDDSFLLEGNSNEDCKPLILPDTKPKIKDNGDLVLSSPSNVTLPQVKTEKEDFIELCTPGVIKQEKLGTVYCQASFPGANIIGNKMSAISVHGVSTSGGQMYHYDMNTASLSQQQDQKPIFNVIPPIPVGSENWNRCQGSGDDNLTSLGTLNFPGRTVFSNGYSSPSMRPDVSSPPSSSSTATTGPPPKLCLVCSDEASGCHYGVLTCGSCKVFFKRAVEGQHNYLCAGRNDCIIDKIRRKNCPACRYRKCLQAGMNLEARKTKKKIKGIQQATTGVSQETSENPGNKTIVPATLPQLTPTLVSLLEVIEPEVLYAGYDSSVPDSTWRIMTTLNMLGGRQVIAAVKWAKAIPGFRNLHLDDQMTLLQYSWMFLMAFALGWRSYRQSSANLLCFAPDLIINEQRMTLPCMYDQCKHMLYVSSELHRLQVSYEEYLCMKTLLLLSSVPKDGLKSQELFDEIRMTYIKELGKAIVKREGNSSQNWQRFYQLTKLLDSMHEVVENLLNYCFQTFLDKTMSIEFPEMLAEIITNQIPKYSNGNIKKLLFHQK
Put plainly: Reporter gene assay pMMTV-Luc expression in Cos-1 line. The following applies: test compound 10^−6 M with dexamethasone; Cos-1 cells transfected with pMMTV-Luc and pRSV-GR. The format is cell-based. On the procedure: vol. 7 No. 10 (1989). The assay may discriminate between gluco/antigluco- and progestin/antiprogestin-effects of the test compounds. Cells were grown on 100 mm plates with 8 ml D-MEM (Dubecco's modified Eagle's medium Gibco BRL), supplemented with 10% bovine fetal serum (Bioser), 3,7 g/l sodium bicarbonate and 100 IU/penicilin G, 100 μg/ml streptomycin, 0,25 μg amphotericin B in an atmosphere in an of 5% CO2 at 37° C. Cells were treated with 0,25% trypsin, 1 mM EDTA and were plated at a density of 5×10^5 cells/plate, in 60 mm plates. Cos-1 cells were transfected with a construct encoding the glucocorticoid receptor, and a construct with the luciferase gene under the MMTV promoter. Cells were transfected by precipitation with calcium phosphate adding 25 μl of a 2M CaCl2 solution to a solution containing 3 pmoles of vectors pMMTV-Luc and pRSV-GR encoding luciferase and the glucocorticoid receptor, respectively. […]
The transfection mixture was added dropwise to an equal volume of transfection buffer 2×BBS, containing phosphate. […] From the supernatant the luciferase activity was determined. […] Luciferase expression was assayed employing a Promega kit in partial obscurity and measured with a Junior luminometer (EG&G Berthold, Germany).
β Galactosidase was determined by hydrolysis of a phenyl galactoside. […]
For orientation: In a reporter assay the amount or activity of a reporter protein is the signal.

The next test addresses T2, kidney-MR (Homo sapiens, UniProt P08235).
T2 construct: host or cells: kidney
T2 sequence (P08235 1-984): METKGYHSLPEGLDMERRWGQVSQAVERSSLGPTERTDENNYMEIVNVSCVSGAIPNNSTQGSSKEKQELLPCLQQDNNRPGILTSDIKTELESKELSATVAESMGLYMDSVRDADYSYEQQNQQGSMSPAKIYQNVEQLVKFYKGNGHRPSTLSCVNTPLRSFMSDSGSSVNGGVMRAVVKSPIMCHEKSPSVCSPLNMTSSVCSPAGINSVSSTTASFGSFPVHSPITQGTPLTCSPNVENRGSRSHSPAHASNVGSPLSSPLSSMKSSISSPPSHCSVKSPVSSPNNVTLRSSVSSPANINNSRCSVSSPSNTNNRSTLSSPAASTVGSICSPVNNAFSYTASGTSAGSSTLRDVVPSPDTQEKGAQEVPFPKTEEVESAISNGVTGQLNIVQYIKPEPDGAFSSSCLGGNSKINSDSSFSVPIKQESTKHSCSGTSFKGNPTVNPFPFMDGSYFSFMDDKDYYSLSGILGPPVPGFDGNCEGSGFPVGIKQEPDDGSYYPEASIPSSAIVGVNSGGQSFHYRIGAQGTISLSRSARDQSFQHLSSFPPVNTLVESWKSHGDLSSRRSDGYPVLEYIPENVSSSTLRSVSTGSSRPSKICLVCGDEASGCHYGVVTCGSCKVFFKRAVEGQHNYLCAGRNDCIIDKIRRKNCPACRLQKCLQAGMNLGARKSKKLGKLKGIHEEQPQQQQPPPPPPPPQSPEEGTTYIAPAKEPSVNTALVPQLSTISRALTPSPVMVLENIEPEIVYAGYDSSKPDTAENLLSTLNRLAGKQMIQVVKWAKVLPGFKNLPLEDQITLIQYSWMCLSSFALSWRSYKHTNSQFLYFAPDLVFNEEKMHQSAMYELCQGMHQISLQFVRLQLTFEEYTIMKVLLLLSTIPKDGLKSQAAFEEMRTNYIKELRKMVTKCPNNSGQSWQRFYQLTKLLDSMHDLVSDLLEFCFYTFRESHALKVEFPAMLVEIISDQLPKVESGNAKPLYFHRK
The following applies: cited from earlier work.

The next test addresses T3, uterus-PR (Homo sapiens, UniProt P06401).
T3 construct: host or cells: uterus
T3 sequence (P06401 1-933): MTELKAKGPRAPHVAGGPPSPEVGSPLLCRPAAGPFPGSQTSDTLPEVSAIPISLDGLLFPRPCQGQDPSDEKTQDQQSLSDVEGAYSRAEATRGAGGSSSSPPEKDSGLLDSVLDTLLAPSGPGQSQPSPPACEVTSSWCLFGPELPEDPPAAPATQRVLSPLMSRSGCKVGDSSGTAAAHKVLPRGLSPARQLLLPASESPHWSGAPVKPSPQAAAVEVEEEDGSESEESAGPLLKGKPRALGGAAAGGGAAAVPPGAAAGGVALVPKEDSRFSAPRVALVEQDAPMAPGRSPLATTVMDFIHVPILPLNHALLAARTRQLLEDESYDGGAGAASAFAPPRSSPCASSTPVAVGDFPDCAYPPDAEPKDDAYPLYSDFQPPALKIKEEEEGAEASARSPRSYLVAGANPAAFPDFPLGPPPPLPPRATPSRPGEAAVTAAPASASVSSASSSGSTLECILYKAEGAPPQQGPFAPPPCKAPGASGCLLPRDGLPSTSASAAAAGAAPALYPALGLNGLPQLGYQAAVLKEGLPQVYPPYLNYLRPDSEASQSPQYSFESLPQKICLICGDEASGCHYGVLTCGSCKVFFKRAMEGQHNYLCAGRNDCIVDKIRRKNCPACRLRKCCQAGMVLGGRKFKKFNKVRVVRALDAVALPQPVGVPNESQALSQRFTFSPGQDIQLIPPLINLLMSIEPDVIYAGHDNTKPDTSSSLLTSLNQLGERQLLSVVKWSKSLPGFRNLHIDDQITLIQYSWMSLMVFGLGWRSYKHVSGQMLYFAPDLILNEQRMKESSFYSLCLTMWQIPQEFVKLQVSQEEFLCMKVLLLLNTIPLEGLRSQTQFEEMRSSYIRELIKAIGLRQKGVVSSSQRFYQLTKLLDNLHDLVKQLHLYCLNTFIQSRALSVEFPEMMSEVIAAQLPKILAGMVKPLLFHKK
The following applies: cited from earlier work.

Where [1] appears, read: Dexamethasone 10^−8 M + test compound 10^−5 M, 4 h at 37° C.

Each structure is given as a SMILES string.

For the compound `C[C@]12CCC3C(C[C@H]4SC[C@@]35CCC(=O)C=C45)C1CCC2C(=O)CO` (stereo partly drawn) [Compound 3, 21-Hydroxy-6,19-sulfanyl-4-pregnene-3,20-dione], in the test on rat thymocytes (setting [1]), the “% total apoptosis” value was 37.50%.

For `C[C@]12CCC3C(C[C@@H]4C5=CC(=O)CC[C@@]53C[S+]4[O-])C1CCC2C(=O)CO` (stereo partly drawn) [Compound 4, 21-Hydroxy-6,19-sulfoxy-4-pregnene-3,20-dione], in the test on rat thymocytes (setting [1]), the “% total apoptosis” value is given as 34.60%. In addition, the “reduction of the luciferase/β galactosidase ratio” value on glucocorticoid receptor was “about 65%”.

For the compound `C[C@]12CCC3C(C[C@@H]4C5=CC(=O)CC[C@@]53CS4(=O)=O)C1CCC2C(=O)CO` (stereo partly drawn) [Compound 5, 21-Hydroxy-6,19-sulfone-4-pregnene-3,20-dione], in the test on rat thymocytes (setting [1]), the “% total apoptosis” value was determined as 31.40%.

On to `C[C@]12CCC3C(C[C@H]4OC[C@@]35CCC(=O)C=C45)C1CCC2C(=O)CO` (stereo partly drawn) [Compound 21OH-6OP, 21-hydroxy-6,19-oxidoprogesterone], for which the “cross-reaction with kidney-MR” value on kidney-MR is on record as “does not substantially cross-react”. Further, the “% total apoptosis” value in the test on rat thymocytes (setting [1]) is given as 38.10%. The “cross-reaction with uterus-PR” value on uterus-PR was “does not substantially cross-react”.

On to `C[C@@H]1C[C@H]2[C@@H]3CCC4=CC(=O)C=C[C@]4(C)[C@@]3(F)[C@@H](O)C[C@]2(C)[C@@]1(O)C(=O)CO` [Dexamethasone], for which the “% total apoptosis” value with rat thymocytes (Dexamethasone 10^−8 M alone, thymocytes 4 h at 37° C.) was 40.40%.

As to `CC#C[C@]1(O)CC[C@H]2[C@@H]3CCC4=CC(=O)CCC4=C3[C@@H](c3ccc(N(C)C)cc3)C[C@@]21C` [RU-486, 11-(4-Dimethylamino-phenyl)-17-hydroxy-13-methyl-17-prop-1-ynyl-1,2,6,7,8,11,12,13,14,15,16,17-dodecahydro-cyclopenta[α]phenanthren-3-one], the “% total apoptosis” value in the test on rat thymocytes (Dexamethasone 10^−8 M + reference compound 10^−6 M, 4 h at 37° C.) is recorded as 35.50%.
